Here are results for eleven compounds from ChEMBL document CHEMBL1201862, “PubChem BioAssay data set” (2004).

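The compound was tested at five concentrations on cells cultured in 96-well plates, with a 48-hour exposure period. Abbreviation: GI50, concentration required for 50% inhibition of growth.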 Calls of active or inactive are those of the source. Cut-off read from the data, not from the text of the source: active = GI50 up to about 1.1 µM and inactive = higher.

Test systems include ACHN; CAKI-1; CCRF-CEM; COLO 205; DU-145; EKVX; HCT-116; HCT-15; HT-29; IGROV-1; M14; MCF7; MOLT-4; Malme-3M; NCI-H23; NCI/ADR-RES; RPMI-8226; SNB-75; UACC-257; OVCAR-4.
Common to all, as to assay: NCI tumour cell line growth inhibition, 48 h

Consider `CC(C)(C(=O)NN)c1ccccc1`, for which the GI50 is > 100 µM (inactive) with ACHN; > 100 µM (inactive) in the experiment with CAKI-1; > 100 µM (inactive) in the experiment with CCRF-CEM; > 100 µM (inactive) with COLO 205; > 100 µM (inactive) in the experiment with DU-145; 34.6 µM (inactive) in the experiment on EKVX. Moreover, the GI50 in the experiment on HCT-116 is > 100 µM (inactive); with HCT-15 it was more than 100 µM; in the experiment with HT-29 it was > 100 µM (inactive); with IGROV-1, 8.79 µM (inactive); with M14, > 100 µM (inactive); with MCF7, > 100 µM (inactive). Besides, the GI50 was > 100 µM (inactive) in the experiment on MOLT-4; > 100 µM (inactive) in the experiment on Malme-3M; > 100 µM (inactive) in the experiment on NCI-H23; > 100 µM (inactive) in the experiment on NCI/ADR-RES; 84.1 µM (inactive) in the experiment on RPMI-8226; > 100 µM (inactive) in the experiment on SNB-75. Besides, in the experiment on UACC-257, the GI50 was > 100 µM (inactive).

For `COC(=O)c1c(C)nc(C)c(N=O)c1-c1ccccc1C(F)(F)F`, the GI50 in the experiment on ACHN was 32.9 µM (inactive); with CAKI-1, 11 µM (inactive); in the experiment with CCRF-CEM, 6 µM (inactive); in the experiment with COLO 205 it was 31.9 µM (inactive); in the experiment with DU-145, > 100 µM (inactive); with EKVX, 99.8 µM (inactive). In addition, the GI50 was 16.4 µM (inactive) in the experiment with HCT-116; 20.3 µM in the experiment on HCT-15; 15.7 µM (inactive) in the experiment on HT-29; 17.7 µM (inactive) in the experiment with IGROV-1; 20 µM (inactive) in the experiment with M14; 20.2 µM (inactive) in the experiment with MCF7. Moreover, the GI50 is 6.25 µM (inactive) with MOLT-4; 15.8 µM (inactive) in the experiment on Malme-3M; 20.5 µM (inactive) in the experiment on NCI-H23; 20.6 µM (inactive) with NCI/ADR-RES; 16.1 µM (inactive) in the experiment on OVCAR-4; 73.8 µM (inactive) with RPMI-8226. Besides, the GI50 in the experiment on UACC-257 is 14 µM (inactive).

Take `COc1ccc(Nc2nc3ccccc3nc2-c2cccs2)cc1OC`: the GI50 in the experiment on ACHN, in the experiment with CAKI-1, in the experiment with CCRF-CEM, in the experiment on COLO 205, in the experiment on DU-145 and with EKVX was > 10 µM (inactive) in each case. In addition, the GI50 in the experiment on HCT-116 was > 10 µM (inactive); in the experiment on HCT-15, more than 10 µM; in the experiment with HT-29, > 10 µM (inactive); in the experiment on IGROV-1, > 10 µM (inactive); in the experiment on M14 it was > 10 µM (inactive); with MCF7, > 10 µM (inactive). Also, the GI50 with MOLT-4, in the experiment on NCI-H23, in the experiment on NCI/ADR-RES, in the experiment on OVCAR-4, in the experiment on RPMI-8226 and in the experiment on SNB-75 was > 10 µM (inactive) throughout. In the experiment with UACC-257, the GI50 was > 10 µM (inactive).

Regarding `COCc1nc2c(OC)c(-c3nc4ccc(N5CCN(C)CC5)nc4[nH]3)cc(OC)c2[nH]1`, the GI50 is 62.2 µM (inactive) in the experiment on ACHN; > 100 µM (inactive) with CAKI-1; 21.2 µM (inactive) with CCRF-CEM; 37.5 µM (inactive) in the experiment with COLO 205; 29.2 µM (inactive) in the experiment with DU-145; 68.1 µM (inactive) with EKVX. Also, the GI50 in the experiment with HCT-116 is 30.1 µM (inactive); in the experiment with HCT-15 it was 38.1 µM; with HT-29 it was 31 µM (inactive); in the experiment with IGROV-1, > 100 µM (inactive); in the experiment with M14, 21.3 µM (inactive); in the experiment on MCF7 it was 40.5 µM (inactive). Besides, the GI50 is 37.1 µM (inactive) in the experiment with MOLT-4; 20.7 µM (inactive) in the experiment with Malme-3M; 62.5 µM (inactive) in the experiment with NCI-H23; > 100 µM (inactive) in the experiment with NCI/ADR-RES; 46.1 µM (inactive) with OVCAR-4; 18 µM (inactive) in the experiment on SNB-75. In addition, in the experiment on UACC-257, the GI50 is 24 µM (inactive).

As to `Cc1cc(=O)c2ccccc2n1CCCCCCCCCCn1c(C)cc(=O)c2ccccc21`, the GI50 was 25.2 µM (inactive) in the experiment on ACHN; 21.6 µM (inactive) with CAKI-1; 12.1 µM (inactive) in the experiment with CCRF-CEM; 21.9 µM (inactive) in the experiment with COLO 205; 14 µM (inactive) with DU-145; 11.7 µM (inactive) in the experiment on EKVX. The GI50 with HCT-116 was 8.09 µM (inactive); in the experiment with HCT-15, 31.3 µM; in the experiment on HT-29, 15.9 µM (inactive); in the experiment on IGROV-1, 17.2 µM (inactive); with M14, 34.9 µM (inactive); in the experiment with MCF7 it was > 10 µM (inactive). In addition, the GI50 is 8.69 µM (inactive) in the experiment on MOLT-4; 15.7 µM (inactive) with Malme-3M; 3.94 µM (inactive) in the experiment with NCI-H23; 16.6 µM (inactive) with NCI/ADR-RES; 15.4 µM (inactive) with OVCAR-4; 30.2 µM (inactive) in the experiment with SNB-75. Moreover, in the experiment with UACC-257, the GI50 was 11.7 µM (inactive).

As for `Clc1ccc2c(NC3CCC(N4CCCCC4)CC3)ccnc2c1` (stereo unspecified), the GI50 was 32.6 µM (inactive) in the experiment with ACHN; 22.2 µM (inactive) with CAKI-1; 6.03 µM (inactive) with CCRF-CEM; 11.7 µM (inactive) in the experiment with COLO 205; 27.4 µM (inactive) with DU-145; 21.2 µM (inactive) in the experiment on EKVX. Besides, the GI50 with HCT-116 is 13.4 µM (inactive); in the experiment on HCT-15, 27.4 µM; in the experiment with HT-29, 11.4 µM (inactive); with IGROV-1, 29.2 µM (inactive); in the experiment on M14, 5.16 µM (inactive); with MCF7 it was 28.8 µM (inactive). In addition, the GI50 is 14.6 µM (inactive) in the experiment with MOLT-4; 20.2 µM (inactive) in the experiment on Malme-3M; 52.5 µM (inactive) in the experiment on NCI-H23; 34 µM (inactive) in the experiment with NCI/ADR-RES; 26.5 µM (inactive) in the experiment with OVCAR-4; 18.1 µM (inactive) in the experiment on RPMI-8226. Moreover, in the experiment with UACC-257, the GI50 is 14.3 µM (inactive).

As to `Nc1ccc(Oc2ccc(C34CC5CC(C3)CC(c3ccc(Oc6ccc(N)c(O)c6)cc3)(C5)C4)cc2)cc1O`, the GI50 in the experiment on ACHN was 1.72 µM (inactive); in the experiment with CAKI-1, 1.93 µM (inactive); in the experiment on COLO 205, 1.52 µM (inactive); in the experiment with DU-145 it was 1.71 µM (inactive); in the experiment on EKVX it was 1.72 µM (inactive); in the experiment on HCT-116, 1.39 µM (inactive). Further, the GI50 in the experiment on HCT-15 was 1.77 µM; with HT-29, 2.05 µM (inactive); with IGROV-1, 1.5 µM (inactive); with M14, 1.63 µM (inactive); in the experiment with MCF7, 2.49 µM (inactive); in the experiment with MOLT-4 it was 2.48 µM (inactive). Also, the GI50 with Malme-3M was 1.85 µM (inactive); with NCI-H23 it was 1.79 µM (inactive); in the experiment on NCI/ADR-RES it was 2.32 µM (inactive); in the experiment on OVCAR-4 it was 2.24 µM (inactive); in the experiment with RPMI-8226 it was 2.54 µM (inactive); in the experiment on UACC-257 it was 1.97 µM (inactive).

With `Cc1nc(O)nc2nc3ccc(Cl)cc3c(NCCNCCO)c12`, the GI50 in the experiment on ACHN is 14.3 µM (inactive); in the experiment on CAKI-1 it was 12.2 µM (inactive); in the experiment with CCRF-CEM, 9.27 µM (inactive); in the experiment with COLO 205, 8.99 µM (inactive); with DU-145, 16 µM (inactive); in the experiment on EKVX, 11.4 µM (inactive). For the same compound, the GI50 with HCT-116 is 5.85 µM (inactive); in the experiment with HCT-15, 17.9 µM; in the experiment with HT-29, 10.3 µM (inactive); in the experiment on IGROV-1, 12.3 µM (inactive); with M14 it was 12.1 µM (inactive); with MCF7, 13.6 µM (inactive). In addition, the GI50 in the experiment with MOLT-4 was 7.53 µM (inactive); in the experiment with Malme-3M it was 15.2 µM (inactive); with NCI-H23, 8.77 µM (inactive); in the experiment with NCI/ADR-RES, 19.4 µM (inactive); in the experiment with OVCAR-4 it was 12.4 µM (inactive); with RPMI-8226, 42.9 µM (inactive). The GI50 in the experiment with UACC-257 is 12.4 µM (inactive).

For the compound `C=CC[C@H](N=C(SC)SC)C(=O)N1C(=O)N(C)[C@@H](C)[C@H]1c1ccccc1`, the GI50 with ACHN was 49.4 µM (inactive); in the experiment with CAKI-1, 25.1 µM (inactive); with CCRF-CEM it was 22.3 µM (inactive); in the experiment with COLO 205, 28 µM (inactive); in the experiment with DU-145, 37.5 µM (inactive); with EKVX, 31.3 µM (inactive). The GI50 in the experiment with HCT-116 was 33 µM (inactive); in the experiment with HCT-15 it was 49.8 µM; with HT-29, 38.6 µM (inactive); with M14, 34.9 µM (inactive); in the experiment with MCF7, 34.8 µM (inactive); in the experiment with MOLT-4 it was 26.4 µM (inactive). The GI50 in the experiment with Malme-3M is 51.6 µM (inactive); in the experiment with NCI-H23, 39.3 µM (inactive); in the experiment on NCI/ADR-RES, 29.5 µM (inactive); with OVCAR-4 it was 29.9 µM (inactive); with SNB-75, 36.4 µM (inactive); in the experiment with UACC-257 it was 29.2 µM (inactive).

Turning to `O=S1(=O)c2ccccc2N2CCCc3cc(Cl)cc1c32`, the GI50 in the experiment with ACHN is > 100 µM (inactive); in the experiment on CAKI-1, 61.2 µM (inactive); in the experiment on CCRF-CEM, > 100 µM (inactive); with COLO 205 it was > 100 µM (inactive); with DU-145, > 100 µM (inactive); in the experiment on EKVX, > 100 µM (inactive). In addition, the GI50 with HCT-116 was > 100 µM (inactive); in the experiment with HCT-15, more than 100 µM; with HT-29, > 100 µM (inactive); in the experiment with IGROV-1, > 100 µM (inactive); with M14, > 100 µM (inactive); in the experiment with MCF7, > 100 µM (inactive). Moreover, the GI50 is > 100 µM (inactive) in the experiment on MOLT-4; 70.6 µM (inactive) in the experiment with Malme-3M; > 100 µM (inactive) in the experiment with NCI/ADR-RES; 46.2 µM (inactive) with OVCAR-4; 12.6 µM (inactive) in the experiment on SNB-75; > 100 µM (inactive) with UACC-257.

As for `C=CCC(NCc1ccccc1)[C@H](OCc1ccccc1)[C@@H]1COC(C)(C)O1` (stereo partly specified), the GI50 in the experiment on ACHN was 42.6 µM (inactive); in the experiment on CCRF-CEM, 28.1 µM (inactive); in the experiment with COLO 205, 14.5 µM (inactive); with DU-145, 97.3 µM (inactive); with EKVX, 32.5 µM (inactive); with HCT-116, 23.7 µM (inactive). Besides, the GI50 is 23.7 µM with HCT-15; 11.7 µM (inactive) in the experiment with HT-29; 35.8 µM (inactive) in the experiment with IGROV-1; 36.2 µM (inactive) in the experiment with M14; 29.4 µM (inactive) with MCF7; 23.7 µM (inactive) in the experiment on MOLT-4. The GI50 with Malme-3M was 22.6 µM (inactive); in the experiment on NCI-H23 it was 28.3 µM (inactive); in the experiment on NCI/ADR-RES, 46.8 µM (inactive); in the experiment on OVCAR-4, 44.7 µM (inactive); in the experiment with RPMI-8226 it was 18.5 µM (inactive); with SNB-75, 49 µM (inactive). Besides, in the experiment on UACC-257, the GI50 was 22.9 µM (inactive).
